TGI and GI50 data for 28 molecules are collected here from PubChem BioAssay (NCI).

Several values for one entry are separate records, joined by “and”; a condition that tells them apart may be missing. Identical values can stand only once.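 Results reflect a 48-hour exposure of cells in 96-well plates to compound at five concentrations. GI50 = concentration required for 50% inhibition of growth. At the TGI there is no net growth.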

In one assay the test system is SK-MEL-5 melanoma. Kind of assay: DTP human tumour cell line panel, 48 h.
Consider `CC1(C)O/C(=C\c2ccccc2)C(=O)/C(=C/c2ccccc2)O1`, for which the TGI (as a rule, the concentration at which net growth stops) was found to be 27.9 µM.

For `O=C1CC2C(=O)N(Cc3ccccc3)C1C=C2S(=O)(=O)c1ccccc1` (centres undefined), the TGI is above 100 µM.

With `N.N.N.N.[Cl-].[Co+3].[N-]=[N+]=[N-].[N-]=[N+]=[N-]`, the GI50 (commonly the concentration that inhibits growth by half) is above 100 µM and the TGI was above 100 µM.

`O=c1[nH]c2cc(Cl)ccc2nc1/C(=N\O)C(O)c1ccc(Cl)cc1Cl` (centres undefined): the TGI is above 100 µM.

Take `CC(C)CCCC(C)[C@H]1CCC2[C@H]3C(CC[C@@]21C)[C@@]1(C)CCC=C[C@]12C[C@@H]2[C@@H]3O` (some centres undefined): the TGI is above 100 µM.

Take `Nc1nc(CCl)nc(Nc2ccccc2)n1`: the TGI worked out at 36.5 µM.

For `CN[C@@H](C)[C@H](NC)c1ccccc1`, the TGI is above 100 µM.

On to `C=C1C(=O)O[C@H]2/C=C(/C)C3=CC(=O)[C@@](C)(C[C@@H](OC(=O)/C(C)=C\C)C12)O3` (some centres undefined), for which the TGI was above 35.3 µM.

`O=S1OC2(c3ccccc3-c3ccccc32)c2ccccc21` (centres undefined) registered a TGI above 100 µM.

For another assay, the system named is SK-MEL-28 melanoma. Kind of assay: DTP human tumour cell line panel, 48 h.
As to `COc1cc2ccc3c4cc(OC)c(OC(C)C)cc4cnc3c2cc1OC`, the TGI was above 100 µM.

Turning to `C1C[OH+]CCNCC[OH+]CC[OH+]CCN1.[Cl-].[Pt+4]`, the GI50 is above 100 µM and the TGI was above 100 µM.

As to `CC(=O)c1sc(-c2nc(C)c(C(=O)/C=C\c3ccc(/C=C\C(=O)c4sc(-c5nc(C)c(C(C)=O)s5)nc4C)cc3)s2)nc1C`, the TGI is above 100 µM.

Molecule `Cc1ccc(C2(O)CC(c3ccc([N+](=O)[O-])o3)=NN2C(=O)COc2ccc(Cl)cc2)cc1` (centres undefined) came in with a TGI of 22.4 µM.

`CC1=NN(C(=O)CC(=O)N(C(=O)c2ccccc2Cl)c2ccc(C)cc2)C(=O)C1N=Nc1ccc([N+](=O)[O-])cc1` (centres undefined) came in with a TGI above 100 µM.

The molecule `COc1cccc(-n2c3nc(=O)n(C)c(=O)c-3nc3ccccc32)c1` showed a TGI of 61.4 µM.

On to `CC(C)(C=O)CC(C#N)/C(=N\NC(N)=O)C(=O)Nc1ccccc1C(N)=O` (centres undefined), for which the TGI is above 100 µM.

Molecule `Cc1cc(C)c(C2[C@H]3C(=O)N(c4ccc(Cc5ccc(N6C(=O)[C@@H]7ON(c8ccccc8)C(c8c(C)cc(C)cc8C)[C@@H]7C6=O)cc5)cc4)C(=O)[C@H]3ON2c2ccccc2)c(C)c1` (some centres undefined) yielded a TGI above 100 µM.

As to `COC(=O)OCC1OC(N2C(=O)NC(=O)C(Br)C2N=[N+]=[N-])CC1OC(=O)OC` (centres undefined), the TGI is above 100 µM.

`CC12CCCCC1(C)C2Sc1ccccc1` (centres undefined) registered a TGI above 100 µM.

Molecule `CCCCOC(=O)NC(=O)c1cn(CCCOC(=O)NCCCCCCNC(=O)OCCCn2cc(C(=O)NC(=O)OCCCC)c(=O)[nH]c2=O)c(=O)[nH]c1=O` displayed a TGI above 100 µM.

`C[C@@]12CCCc3coc(c31)C(=O)c1cc3c(cc12)C(=O)C=CC3=O` showed a TGI above 1 µM.

Turning to `C=CCNC(=O)N(CCC)CCCCC(NC(C)=O)C(=O)NCc1ccccc1` (centres undefined), the TGI was above 100 µM.

Regarding `COC(=O)/C(C=O)=C/Sc1ccccc1`, the TGI turned out to be 59.2 µM.

Molecule `Nc1ccn(C2(CO)C=C(CO)C(O)C2O)c(=O)n1` (centres undefined) yielded a TGI above 25.8 µM.

`C=C1C[C@]23CCC4C(C)(C)C(=O)CC[C@]4(C)C2C[C@H]1C(O)C3=O` (some centres undefined) gave a TGI above 75 µM.

In turn, `CC1(C)O/C(=C\c2ccccc2)C(=O)/C(=C/c2ccccc2)O1` gave a TGI above 100 µM.

The molecule `O=C1CC2C(=O)N(Cc3ccccc3)C1C=C2S(=O)(=O)c1ccccc1` (centres undefined) showed a TGI above 100 µM.

As for `N.N.N.N.[Cl-].[Co+3].[N-]=[N+]=[N-].[N-]=[N+]=[N-]`, the GI50 was 60.3 µM and the TGI is above 100 µM.

In the case of `O=c1[nH]c2cc(Cl)ccc2nc1/C(=N\O)C(O)c1ccc(Cl)cc1Cl` (centres undefined), the TGI is above 100 µM.

`CC(C)CCCC(C)[C@H]1CCC2[C@H]3C(CC[C@@]21C)[C@@]1(C)CCC=C[C@]12C[C@@H]2[C@@H]3O` (some centres undefined) yielded a TGI above 100 µM.

`Nc1nc(CCl)nc(Nc2ccccc2)n1` registered a TGI of 33.2 µM.

`CN[C@@H](C)[C@H](NC)c1ccccc1`: the TGI was above 100 µM.

As to `O=S1OC2(c3ccccc3-c3ccccc32)c2ccccc21` (centres undefined), the TGI is above 100 µM.

A further assay concerns LOX IMVI melanoma. Kind of assay: DTP human tumour cell line panel, 48 h.
The molecule `COc1cc2ccc3c4cc(OC)c(OC(C)C)cc4cnc3c2cc1OC` had a TGI above 100 µM.

With `CN1NC(=Nc2ccccc2)Sc2c1cnn(-c1ccccc1)c2=O`, the TGI was above 100 µM.

As for `C1C[OH+]CCNCC[OH+]CC[OH+]CCN1.[Cl-].[Pt+4]`, the GI50 is above 100 µM and the TGI is above 100 µM.

For the molecule `CC(=O)c1sc(-c2nc(C)c(C(=O)/C=C\c3ccc(/C=C\C(=O)c4sc(-c5nc(C)c(C(C)=O)s5)nc4C)cc3)s2)nc1C`, the TGI is above 100 µM.

As for `COC(=O)/C(C)=C/[N+](=O)[O-]`, the TGI was 38.9 µM.

For `Cc1ccc(C2(O)CC(c3ccc([N+](=O)[O-])o3)=NN2C(=O)COc2ccc(Cl)cc2)cc1` (centres undefined), the TGI came to 19 µM.

The molecule `CC1=NN(C(=O)CC(=O)N(C(=O)c2ccccc2Cl)c2ccc(C)cc2)C(=O)C1N=Nc1ccc([N+](=O)[O-])cc1` (centres undefined) came in with a TGI above 57.4 µM.

Take `CC(C)(C=O)CC(C#N)/C(=N\NC(N)=O)C(=O)Nc1ccccc1C(N)=O` (centres undefined): the TGI was above 100 µM.

With `Cc1cc(C)c(C2[C@H]3C(=O)N(c4ccc(Cc5ccc(N6C(=O)[C@@H]7ON(c8ccccc8)C(c8c(C)cc(C)cc8C)[C@@H]7C6=O)cc5)cc4)C(=O)[C@H]3ON2c2ccccc2)c(C)c1` (some centres undefined), the TGI was above 100 µM.

For `COC(=O)OCC1OC(N2C(=O)NC(=O)C(Br)C2N=[N+]=[N-])CC1OC(=O)OC` (centres undefined), the TGI was above 100 µM.

Molecule `CC12CCCCC1(C)C2Sc1ccccc1` (centres undefined) showed a TGI above 61 µM.

In turn, `CCCCOC(=O)NC(=O)c1cn(CCCOC(=O)NCCCCCCNC(=O)OCCCn2cc(C(=O)NC(=O)OCCCC)c(=O)[nH]c2=O)c(=O)[nH]c1=O` yielded a TGI above 100 µM.

As to `C[C@@]12CCCc3coc(c31)C(=O)c1cc3c(cc12)C(=O)C=CC3=O`, the GI50 was above 1 µM; the TGI is > 1 µM and 35.1 µM.

`COc1cc(C)c2c(c1C)OC(=O)c1c(C)c(Cl)c(O)c(C=O)c1O2`: the TGI amounted to 42.8 µM.

As to `C=CCNC(=O)N(CCC)CCCCC(NC(C)=O)C(=O)NCc1ccccc1` (centres undefined), the TGI was above 100 µM.

`COC(=O)/C(C=O)=C/Sc1ccccc1` showed a TGI of 23 µM.

Molecule `C=C1C[C@]23CCC4C(C)(C)C(=O)CC[C@]4(C)C2C[C@H]1C(O)C3=O` (some centres undefined) had a TGI above 75 µM.

With `CC1(C)O/C(=C\c2ccccc2)C(=O)/C(=C/c2ccccc2)O1`, the TGI was above 100 µM.

For the molecule `O=C1CC2C(=O)N(Cc3ccccc3)C1C=C2S(=O)(=O)c1ccccc1` (centres undefined), the TGI is above 100 µM.

As to `N.N.N.N.[Cl-].[Co+3].[N-]=[N+]=[N-].[N-]=[N+]=[N-]`, the GI50 is above 100 µM and the TGI is above 100 µM.

In turn, `O=c1[nH]c2cc(Cl)ccc2nc1/C(=N\O)C(O)c1ccc(Cl)cc1Cl` (centres undefined) showed a TGI above 100 µM.

Molecule `CC(C)CCCC(C)[C@H]1CCC2[C@H]3C(CC[C@@]21C)[C@@]1(C)CCC=C[C@]12C[C@@H]2[C@@H]3O` (some centres undefined) gave a TGI above 100 µM.

In turn, `CN[C@@H](C)[C@H](NC)c1ccccc1` yielded a total growth inhibition concentration (TGI) above 100 µM.

In turn, `C=C1C(=O)O[C@H]2/C=C(/C)C3=CC(=O)[C@@](C)(C[C@@H](OC(=O)/C(C)=C\C)C12)O3` (some centres undefined) came in with a TGI of 1.14 µM.

With `O=S1OC2(c3ccccc3-c3ccccc32)c2ccccc21` (centres undefined), the TGI is above 100 µM.
